Measurements: US20210363110A1, “4-METHYLDIHYDROPYRIMIDINONE COMPOUNDS AND PHARMACEUTICAL USE THEREOF” (Japan Tobacco Inc., priority 2018, published 2021)

Experiments:
[1] = tested on: CYP3A4; test: Potential for induction of CYP3A4 (Nuclear Receptor Activation Kit, DPX2 cells, reporter activity); format: in vitro ADME; conditions: 48 hours, % of positive control (rifampicin); for Potential for induction of CYP3A4, 3 μM: 3 μM compound; for Potential for induction of CYP3A4, 10 μM: 10 μM compound
Description: Potential for induction of CYP3A4 was evaluated with Nuclear Receptor Activation Kits (PURACYP; DPX2-96-002) according to protocols attached.
The following experiment was performed with substances accompanying Nuclear Receptor Activation Kits (PURACYP; DPX2-96-002).
A measurement method is specifically shown as follows. DPX2 cells were seeded on a 96-well plate and incubated with a CO2 incubator for 24 hours. […] The media on 96-well plate were removed with an aspirator 24 hours after seeding, and thereto was added the compound-supplemented medium which was prepared. CellTiter-Fluor was added to the medium 48 hours after the addition of compound, and the mixture was incubated with a CO2 incubator for 1 hour. Then, a cell viability was measured by the fluorometric method. ONE-Glo was added to the mixture, and the mixture was incubated with a CO2 incubator for 5 minutes. Then, the reporter activity was measured by luminescent determination. The induction ratio was calculated by comparing the resulting reporter activity with a DMSO control sample. % of positive control was calculated from the following equation.

[2] = Metabolic stability in hepatocytes, rat; format: in vitro ADME; conditions: residual ratio of unreacted substance, 1×10^6 cells/mL
Description: (§1) A test solution was prepared by diluting 10 mM DMSO solution of a test substance with acetonitrile by 20 times.
(§2) Human and animal cryopreserved hepatocyte (BIOIVT; Human (IVT-X008000), Rat (IVT-M00005), Monkey (IVT-M00305), Dog (IVT-M00205)) were adjusted with William's Medium E (SIGMA; W1878) to 1×10^6 cells/mL of a cell suspension, which was then added to a 96-well plate. Then, 1% of the solution of a test substance prepared was added to the reaction system, and the metabolic reaction was initiated. At a designated time, 0.1% formic acid-acetonitrile was added thereto, and the reaction was terminated.
(§3) The sample after termination of the reaction was separated by centrifugation (1400 g, 20 min.), and then the supernatant was measured by LC/MS (UPLC-SQD (waters)) to calculate a residual ratio of unreacted substances.

[3] = Metabolic stability in hepatocytes, monkey; format: in vitro ADME; conditions: residual ratio of unreacted substance, 1×10^6 cells/mL
Description: as §1, §2, §3

[4] = Rat pharmacokinetic (PK) assay and measurement of plasma concentrations; format: in vivo; conditions: male rat, 0.3 mg/kg, DMSO solution, T1/2=0.693/Kel
Description: A DMSO solution (0.1 mL/kg) of test substance (0.3 mg/kg) was administered to a male rat (7-week old), and blood was collected at designated times (5, 10, 15, 30 min., 1, 2, 4, 8, 25 hr). Samples after the blood collection were separated by centrifugation (11000 g, 5 min.) to obtain plasmas.
A double volume of a mixed solution of acetonitrile/water (9:1) was added to a plasma sample obtained in (1) in order that proteins were extracted from the mixture. The sample after extraction was separated by centrifugation (11000 g, 5 min.), and the supernatant was measured by LC/MSMS (Nexera (Shimadzu)-QTrap5500 (AB SCIEX)). A calibration curve was measured simultaneously, and plasma concentrations were calculated.
The elimination rate constant (Kel) was calculated from two points of the elimination phase in the plasma concentration profile, and the half-life (T1/2) was calculated from the elimination rate constant.
Kel=−(ln Conc1−ln Conc2)/(t1−t2)

[5] = tested on: IL-17 production in plasmas; test: IL-17 production in plasmas of antigen-sensitized mice; format: in vivo, C57BL/6J mice; conditions: for IL-17 concentration in plasma, % of control, 0.3 mg/kg: 0.3 mg/kg orally once daily for 7 days; for IL-17 concentration in plasma, % of control, 0.3 mg/kg / IL-17 concentration in plasma, % of control, 1 mg/kg: MOG/CFA/PTX-sensitized mice, blood at day 8, Normal 0%, Vehicle 100%; for IL-17 concentration in plasma, % of control, 1 mg/kg: 1 mg/kg orally once daily for 7 days; for ED50: Mus musculus, 168 h, oral once daily for 7 days, antigen-sensitized mice, calculated from the 0.3 and 1 mg/kg groups, read-out: ED50 (dose where the IL-17 concentration was decreased by 50%)
Description: Effects of test substances on IL-17 production in plasmas were assessed in antigen-sensitized mice. Antigen sensitization was performed according to Non Patent Literature 31. Nine-week old female C57BL/6J mice (Japan Charles River K. K.) were used as a test animal.
An emulsion prepared by mixing 3 mg/mL of myelin oligodendrocyte glycoprotein (MOG; ANASPEC) and 4 mg/mL of complete Freund's adjuvant (CFA; Chondrex) in an equal ratio was administered subcutaneously to a mouse at the bilateral abdomens at a volume of 50 μL/site (day 1). 1 μg/mL of pertussis toxin (PTX; List Biological Laboratories) was administered intraperitoneally at a volume of 200 μL/head (day 1 and 3). Blood was collected at day 8.
Administration was performed once daily for 7 days after the administration of emulsion (day 1 to 7). 0.5% (w/v) methyl cellulose (MC) was administered orally at a volume of 10 mL/kg to Normal group (normal mice) and Vehicle group (antigen-sensitized mice), and 0.03 mg/mL or 0.1 mg/mL of a test substance suspended in 0.5% (w/v) MC was administered orally at a volume of 10 mL/kg to a compound-administered group.
Blood was separated by centrifugation, and then the IL-17 concentration in plasma was measured with Quantikine (Registered trade mark) Mouse IL-17 ELISA Kit (R&D systems, Inc.).
The IL-17 concentration of Normal group was deemed to be 0% and that of Vehicle group was deemed to be 100%. The IL-17 concentration percentage (% of control) of the compound-administered group was calculated from the following equation.
% of control=(a−b)/(c−b)×100
a: IL-17 concentration of the compound-administered group b: IL-17 concentration of the Normal group c: IL-17 concentration of the Vehicle group
Then, a dose of compound where the IL-17 concentration was decreased by 50% (ED50) was calculated from the following equation.
ED50=10^(log(A/B)×(50−D)/(C−D)+log(B); provided that ED50=B in the case D=50, and ED50>B in the case D>50 A: dosed amount of the lower dose group (i.e. 0.3 mg/kg) B: dosed amount of the higher dose group (i.e. 1 mg/kg) C: % of control at the lower dose group D: % of control at the higher dose group

[6] = Metabolic stability in liver microsomes, monkey; format: in vitro ADME; conditions: residual ratio of unreacted substance, 0.2 mg/mL microsomes, NADPH generating system
Description: A test solution was prepared by diluting 10 mM DMSO solution of a test substance with acetonitrile by 100 times.
Human and animal liver microsomes (SEKISUI XENOTECH; Human (H2610), Rat (R1000), Mouse (M1000), Monkey (P2000), Dog (D1000)) were adjusted with potassium phosphate buffer (pH 7.4) to 0.2 mg/mL in the reaction system. Then, 1% of the solution of a test substance prepared was added to the reaction system. Thereto was added an NADPH generating system (prepared according to the method of Non Patent Literature 28), and the metabolic reaction was initiated. At a designated time, 0.1% formic acid-acetonitrile/water (3:1) was added thereto, and the reaction was terminated.
as §3

| SMILES | Potential for induction of CYP3A4, 3 μM [1] | Potential for induction of CYP3A4, 10 μM [1] | Potential for induction of CYP3A4, 30 μM ([1]; 30 μM compound) | Metabolic stability in hepatocytes at 240 min., Rat [2] | Metabolic stability in hepatocytes at 240 min., Monkey [3] | half-life [4] | IL-17 concentration in plasma, % of control, 0.3 mg/kg [5] | IL-17 concentration in plasma, % of control, 1 mg/kg [5] | ED50 [5] | Metabolic stability in liver microsomes at 60 min., Monkey [6] |
| --- | --- | --- | --- | --- | --- | --- | --- | --- | --- | --- |
| CC(C)C1=CN(C23CC(C(=O)O)(C2)C3)C(=O)N[C@@]1(C)c1ccc([C@@H]2C[C@H]2C(C)(C)C)c(Cl)c1 [Compound (1), 3-{(S)-4-[4-((1R,2R)-2-tert-Butyl-cyclopropyl)-3-chloro-phenyl]-5-isopropyl-4-methyl-2-oxo-3,4-dihydro-2H-pyrimidin-1-yl}bicyclo[1.1.1]pentane-1-carboxylic acid] | <10% | <10% | <10% | 90% | 83% | 10.5 h | 66 (=C) % | 24 (=D) % | 0.5 mg/kg | 93% |
| CC[C@H](C)C1=CN(C23CC(C(=O)O)(C2)C3)C(=O)N[C@@]1(C)c1ccc([C@@H]2C[C@H]2C(C)(C)C)c(Cl)c1 [Compound (2), 3-{(S)-5-((S)-sec-Butyl)-4-[4-((1R,2R)-2-tert-butyl-cyclopropyl)-3-chloro-phenyl]-4-methyl-2-oxo-3,4-dihydro-2H-pyrimidin-1-yl}bicyclo[1.1.1]pentane-1-carboxylic acid] | <10% | <10% | – | 94% | 85% | 13.2 h | 85 (=C) % | 54 (=D) % | > 1 mg/kg | 96% |
